How the values were obtained:
[1] = target: T1, mineralocorticoid receptor (MR) (Homo sapiens, UniProt P08235); assay: Mineralocorticoid receptor agonist activity, PathHunter NHR nuclear translocation assay; assay type: cell-based; conditions: PathHunter NHR CHO-K1 cells
T1 construct: expressed in transfected cells; host or cells: PathHunter NHR CHO-K1 cells
T1 sequence (P08235 1-984): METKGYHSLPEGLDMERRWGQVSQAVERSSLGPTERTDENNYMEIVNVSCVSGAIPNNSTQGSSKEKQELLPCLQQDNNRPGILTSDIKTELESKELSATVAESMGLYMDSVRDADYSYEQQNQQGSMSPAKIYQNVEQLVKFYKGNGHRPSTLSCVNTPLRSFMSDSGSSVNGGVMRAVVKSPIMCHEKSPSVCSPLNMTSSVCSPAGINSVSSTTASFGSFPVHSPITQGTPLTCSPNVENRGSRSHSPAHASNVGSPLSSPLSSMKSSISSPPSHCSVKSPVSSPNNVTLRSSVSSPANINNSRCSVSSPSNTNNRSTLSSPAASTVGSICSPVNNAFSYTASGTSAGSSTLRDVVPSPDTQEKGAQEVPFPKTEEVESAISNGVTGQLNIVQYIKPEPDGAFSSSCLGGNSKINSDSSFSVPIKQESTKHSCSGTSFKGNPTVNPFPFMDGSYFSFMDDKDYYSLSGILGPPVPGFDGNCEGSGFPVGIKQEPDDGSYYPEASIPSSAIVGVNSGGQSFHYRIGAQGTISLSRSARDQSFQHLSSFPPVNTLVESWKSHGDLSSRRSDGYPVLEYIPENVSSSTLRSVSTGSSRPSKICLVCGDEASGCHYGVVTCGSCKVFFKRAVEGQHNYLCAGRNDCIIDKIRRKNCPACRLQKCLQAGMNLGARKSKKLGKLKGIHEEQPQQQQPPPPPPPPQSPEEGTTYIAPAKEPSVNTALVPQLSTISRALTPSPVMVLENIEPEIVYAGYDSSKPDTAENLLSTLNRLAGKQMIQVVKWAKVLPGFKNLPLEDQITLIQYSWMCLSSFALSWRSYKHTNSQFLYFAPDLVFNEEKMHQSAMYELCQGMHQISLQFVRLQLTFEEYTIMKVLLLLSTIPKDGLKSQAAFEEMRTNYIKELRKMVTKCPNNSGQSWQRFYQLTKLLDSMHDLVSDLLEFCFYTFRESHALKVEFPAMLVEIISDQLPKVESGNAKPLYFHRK
Procedure: 3. Mineralocorticoid Receptor Agonist Activity Assay The mineralocorticoid receptor (MR) agonist activity of small-molecule steroids was tested using a PathHunter® NHR nuclear translocation assay. PathHunter NHR CHO-K1 cells were plated onto a 384-well white-wall microplate and co-incubated with test small-molecule steroids at 37° C. in 5% CO2 to induce reactions. Assay signals were generated using the PathHunter assay reagent mix. After one hour of incubation at room temperature, chemiluminescent signals were detected. The data were analyzed using four-parameter curve fitting to generate EC50 values.

human recombinant GR = target: T2, human recombinant GR (Homo sapiens, UniProt P04150); assay: human glucocorticoid NHR (radiolabeled agonist) binding assay; conditions: competition with 5 nM [3H]dexamethasone, 4° C., 24 h
T2 sequence (P04150 1-777): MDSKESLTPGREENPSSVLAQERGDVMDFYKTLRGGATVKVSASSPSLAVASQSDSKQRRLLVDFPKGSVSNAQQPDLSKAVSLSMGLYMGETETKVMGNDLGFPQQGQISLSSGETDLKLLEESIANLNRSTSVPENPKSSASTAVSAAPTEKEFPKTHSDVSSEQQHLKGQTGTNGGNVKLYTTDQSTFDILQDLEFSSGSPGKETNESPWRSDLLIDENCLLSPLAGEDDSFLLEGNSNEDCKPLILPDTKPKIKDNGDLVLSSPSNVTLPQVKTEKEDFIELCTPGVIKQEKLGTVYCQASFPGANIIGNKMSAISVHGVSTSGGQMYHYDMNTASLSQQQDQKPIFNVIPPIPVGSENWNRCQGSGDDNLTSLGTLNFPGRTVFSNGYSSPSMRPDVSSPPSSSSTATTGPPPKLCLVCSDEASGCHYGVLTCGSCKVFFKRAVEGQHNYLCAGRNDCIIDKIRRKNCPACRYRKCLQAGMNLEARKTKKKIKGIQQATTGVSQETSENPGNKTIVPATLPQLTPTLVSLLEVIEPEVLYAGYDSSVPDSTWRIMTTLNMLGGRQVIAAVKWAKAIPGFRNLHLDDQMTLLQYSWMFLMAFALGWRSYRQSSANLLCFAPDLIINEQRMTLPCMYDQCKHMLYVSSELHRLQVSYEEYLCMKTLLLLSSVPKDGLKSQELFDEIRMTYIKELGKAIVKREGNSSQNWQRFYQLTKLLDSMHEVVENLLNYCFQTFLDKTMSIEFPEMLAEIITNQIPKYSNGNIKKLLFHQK
Procedure: 2. Glucocorticoid Receptor Binding Assay
The assays were based on the following principle: Different concentrations of a small-molecule steroid and 5 nM [3H]dexamethasone are incubated with human recombinant GR at 4° C. for 24 h. The small-molecule steroid competes with [3H]dexamethasone for binding to human GR. The binding activity of the small-molecule steroid for GR can be calculated by counting the number of [3H]dexamethasone molecules that bind specifically to the receptor.

[2] = system: GRE reporter gene in A549 cells; assay: GRE reporter gene assay in A549 cells (MMTV-Luc); assay type: cell-based; conditions: 24 h; for EC50: Homo sapiens
Procedure: 4. GRE reporter gene assay A549 cells were plated (40,000 cells/96-well plate), transfected with pGL4.36 (MMTV-Luc, 100 ng/well) using lipo3000, cultured overnight and then incubated with different concentrations of small-molecule steroids. After 24 h, the expression of luciferase in the reporter gene system was detected using the Bright-Glo (promega) assay reagent.

[3] = system: mouse collagen antibody-induced arthritis (CAIA) model; assay: Mouse collagen antibody-induced arthritis (CAIA) model; assay type: in vivo; conditions: 10 mg/kg intraperitoneally twice a week; FIG. 6
Procedure: Male balb/c mice, 6 w, purchased from the Laboratory Animal Management Department, Shanghai Institute of Planned Parenthood Research. Housing environment: SPF; production license SCXK (Shanghai) 2018-0006; Balb/c mouse certification number: 20180006023393.
Upon arrival, the test animals were acclimatized for 7 days and randomly grouped. On day 0, each group of mice was intraperitoneally injected with 1.5 mg/mouse of type II collagen antibody cocktail (purchased from Chondrex Inc.) for modeling except for the control group. On day 3, each group of mice was intraperitoneally injected with […] of LPS (100 μL) to boost the immune response except for the control group. Administration to each group of mice began on day 5, and limb arthritis was scored every 1-3 days. Mice were dosed according to the following administration regimens. The severity of arthritis in each group of mice was semi-quantitatively scored every 1-3 days and further, the anti-inflammatory activity of anti-TNF-ADCs was evaluated.

Molecule | EC50 [1] [nM] | IC50 (human recombinant GR) [nM] | GRE reporter gene Emax [2] [RLU] | EC50 [2] [nM] | anti-inflammatory activity in the CAIA model [3]
C[C@]12C=CC(=O)C=C1CC[C@@H]1[C@@H]2[C@@H](O)C[C@@]2(C)[C@H]1C[C@H]1O[C@@H](c3ccc(C(=O)c4cccc(N)c4)cc3)O[C@]12C(=O)CO [Compound 2-A] | 220 | 6.69 |  |  | 
C[C@]12C=CC(=O)C=C1CC[C@H]1[C@@H]3C[C@H]4O[C@@H](c5ccc(C(=O)c6cccc(N)c6)cc5)O[C@@]4(C(=O)CO)[C@@]3(C)C[C@H](O)[C@@]12F [Compound 5-A] |  | 5.23 | 2.3E7 | 4.3 | 
C[C@]12C=CC(=O)C=C1CC[C@@H]1[C@@H]2[C@@H](O)C[C@@]2(C)[C@H]1C[C@H]1O[C@@H](c3ccc(Cc4cccc5c(N)cccc45)cc3)O[C@]12C(=O)CO [Compound 3-A] | 190 | 2.24 | 1.53E6 | 1.47 | 
C[C@]12C=CC(=O)C=C1CC[C@@H]1[C@@H]2[C@@H](O)C[C@@]2(C)[C@H]1C[C@H]1O[C@@H](c3ccc(Cc4cccc(N)c4)cc3)O[C@]12C(=O)CO [A-A, reference compound] |  |  | 1.45E6 | 0.6 | 
C[C@]12C=CC(=O)C=C1CC[C@@H]1[C@@H]2[C@@H](O)C[C@@]2(C)[C@H]1C[C@H]1O[C@@H](c3ccc(C(F)(F)c4cccc(N)c4)cc3)O[C@]12C(=O)CO [Compound 4-A] | 260 | 2.12 | 1.69E6 | 2.16 | 
adalimumab [Humira] |  |  |  |  | weak anti-inflammatory activity
C[C@]12C=CC(=O)C=C1CC[C@@H]1[C@@H]2[C@@H](O)C[C@@]2(C)[C@H]1C[C@H]1O[C@@H](c3ccc(-c4ccc(-c5cccc(N)c5)cc4)cc3)O[C@]12C(=O)CO [Compound 1-A] | > 200000 | 4.37 | 7.67E5 | 22.6 | 

From patent US20240189438A1, “DRUG CONJUGATE OF GLUCOCORTICOID RECEPTOR AGONIST, AND APPLICATION THEREOF IN MEDICINE” (Shanghai Senhui Medicine Co., Ltd., priority 2021, published 2024)
